{"source": "PubChem BioAssay AID488879", "about": "(Sanford-Burnham Center for Chemical Genomics, 2010)", "note": "The source made the active and inactive calls. No rule for the calls is given here.", "data": [{"target": "alkaline phosphatase, placental type (Homo sapiens)", "test": "inhibition of placental alkaline phosphatase – biochemical, uHTS hits, selectivity assay for mouse IAP inhibitor project, dose response (AID 488879)", "details": "purified human placental alkaline phosphatase, enzymatic inhibition", "values": [{"smiles": "CCOC(=O)C1=C(C)N=c2s/c(=C/c3cccc([N+](=O)[O-])c3O)c(=O)n2C1c1ccc(OC)cc1OC", "note": "(stereo not drawn)", "IC50": "> 100 µM (inactive)"}, {"smiles": "Cc1ccc(CNC(=S)NC2CCC(C(C)(C)C)CC2)cc1", "note": "(stereo not drawn)", "IC50": "> 100 µM (inactive)"}, {"smiles": "O=C(CSc1ncn[nH]1)CSc1ncn[nH]1", "IC50": "23 µM"}, {"smiles": "C#CCOCCOCCOCCNc1nc(N2CCN(C(=O)CCCCCCCCCCNC(=O)[C@@H](CCSC)n3cc(CCO)nn3)CC2)nc(N2CCN(C(=O)CCCCCCCCCCNC(=O)[C@H]([C@@H](C)CC)n3cc(CCCCN=C(N)N)nn3)CC2)n1", "IC50": "> 100 µM (inactive)"}, {"smiles": "CCOC(=O)c1ccc(N2CCN(c3ccccc3F)CC2)c(NC(=O)Nc2ccccc2)c1", "IC50": "> 100 µM (inactive)"}, {"smiles": "O=C(CSc1nc2nn(-c3ccccc3)c(=O)c-2c2n1CCCCC2)c1ccc(O)c(O)c1", "IC50": "> 100 µM (inactive)"}, {"smiles": "NS(=O)(=O)c1cccc(NC(=O)CSc2nnc(-c3ccncc3)n2C2CC2)c1", "IC50": "> 100 µM (inactive)"}, {"smiles": "O=C(NN1C(=O)CSC1=S)C(=O)NN1C(=O)CSC1=S", "IC50": "> 100 µM (inactive)"}, {"smiles": "C#CCOCCOCCOCCNc1nc(N2CCN(C(=O)CCCCCCCCCCNC(=O)Cn3cc(CCCCCN)nn3)CC2)nc(N2CCN(C(=O)CCCCCCCCCCNC(=O)[C@@H](CCSC)n3cc(CCO)nn3)CC2)n1", "IC50": "> 100 µM (inactive)"}, {"smiles": "Cc1nonc1C(=O)N/N=C/c1ccc(O)c(O)c1", "IC50": "18 µM"}, {"smiles": "Cc1ccc(N/C(N)=N/c2nc(C)cc(N3CCCCC3)n2)c(C)c1", "IC50": "26.3 µM"}, {"smiles": "O=C1NN(c2cccc(Br)c2)C(=O)/C1=C/c1ccc(-c2cc([N+](=O)[O-])ccc2O)o1", "IC50": "> 100 µM (inactive)"}, {"smiles": "CCOc1ccc(S(=O)(=O)Nc2ccc(O)c(Sc3ncn[nH]3)c2)cc1", "IC50": "20.5 µM"}, {"smiles": "Oc1cc(O)c2c(c1)O[C@H](c1ccc(O)c(O)c1)[C@@H](O)C2", "IC50": "> 100 µM (inactive)"}, {"smiles": "Oc1cc(O)c2c(c1)OC(c1ccc(O)c(O)c1)C(O)C2", "note": "(stereo not drawn)", "IC50": "> 100 µM (inactive)"}, {"smiles": "NS(=O)(=O)c1ccc(-c2ccc(/C=C3\\NC(=S)NC3=O)o2)cc1", "IC50": "> 100 µM (inactive)"}, {"smiles": "N#Cc1c(SCC(=O)Nc2nncs2)sc2c(O)cc(=O)[nH]c12", "IC50": "> 100 µM (inactive)"}, {"smiles": "CCOc1ccc(S(=O)(=O)Nc2cc(Sc3ncn[nH]3)c3oc(=O)sc3c2)cc1", "IC50": "> 100 µM (inactive)"}, {"smiles": "Cc1c(Cl)cccc1NC(=S)NCCC(c1ccccc1)c1ccccc1", "IC50": "> 100 µM (inactive)"}, {"smiles": "O=C(NNC(=O)c1cc2cc(Br)ccc2oc1=O)c1ccc(O)cc1O", "IC50": "> 100 µM (inactive)"}, {"smiles": "COc1cc(/C=N/NC(=O)c2cc(O)cc(O)c2)ccc1OC(=O)c1ccccc1", "IC50": "70.1 µM"}, {"smiles": "O=C(COC(=O)COc1ccccc1)Nc1ncc([N+](=O)[O-])s1", "IC50": "> 100 µM (inactive)"}, {"smiles": "CC(C)(C)c1ccc(O)c(N=Cc2cc3c(cc2[N+](=O)[O-])OCO3)c1", "IC50": "> 100 µM (inactive)"}, {"smiles": "COc1cc(/C=C/[N+](=O)[O-])ccc1OC(=O)c1cc2ccccc2oc1=O", "IC50": "> 100 µM (inactive)"}, {"smiles": "OCCCN1c2ccccc2Nc2nnc(-c3ccccc3)cc21", "IC50": "> 100 µM (inactive)"}, {"smiles": "N#CC(C#N)=Cc1ccc(O)c(O)c1", "IC50": "> 100 µM (inactive)"}, {"smiles": "O=C(c1c(O)cc(O)cc1O)C1c2c(cc(O)c3c2O[C@H](c2ccc(O)cc2)[C@@H](O)C3)OC1c1ccc(O)cc1", "note": "(stereo partly drawn)", "IC50": "23.2 µM"}, {"smiles": "O=C(NCCCCc1ccccc1)NC[C@@H]1CC[C@@H](Cc2ccc(-c3ccccc3)cc2)O1", "IC50": "6.58 µM"}]}]}
